Blank lines part the entries; values can stand above or below the molecule they belong to. Numbered stars: 1 amine (or outer) side, 2 acyl side, 3 side chain; on linkers, the order of the positions; unused ones are H or OH. Square brackets hold non-standard residues; d marks the D form. Peptide text beside a SMILES is read from it. X1 = O=C(C1(N[*:1])CCC(c2ccccc2)CC1)[*:2]; hArg = N=C(N)NCCCC[C@H](N)C(=O)O
Key:
Homo sapiens [1] = experiment: Hypocholesterolemic activity in human assessed as reduction in ApoB level at 300 mg, QD administered for 28 days; type: functional; set-up: scale not given: the % may be the effect or the level left; settings: time 28 day
Homo sapiens [2] = experiment: Hypocholesterolemic activity in human assessed as reduction in TC level at 300 mg, QD administered for 28 days; type: functional; set-up: scale not given: the % may be the effect or the level left; settings: time 28 day
Homo sapiens [3] = experiment: Hypocholesterolemic activity in human assessed as reduction in LDL-C level at 300 mg, QD administered for 28 days; type: functional; set-up: scale not given: the % may be the effect or the level left; settings: time 28 day
[4] = biological target: T1, Proprotein convertase subtilisin/kexin type 9 (Homo sapiens, UniProt Q8NBP7); experiment: Binding affinity to human PCSK9
[5] = biological target: T1, Proprotein convertase subtilisin/kexin type 9; experiment: Inhibition of PCSK9 mediated LDLR degradation in human HepG2 cells assessed as restoration of LDLR; type: cell-based
[6] = biological target: T1, Proprotein convertase subtilisin/kexin type 9; experiment: Inhibition of human PCSK9
[7] = biological target: T1, Proprotein convertase subtilisin/kexin type 9; experiment: Inhibition of human PCSK9 preincubated for 30 mins followed by EGF(A) addition and measured after 2 hrs by TR-FRET assay
[8] = biological target: T2, 3-hydroxy-3-methylglutaryl-coenzyme A reductase (Homo sapiens, UniProt P04035); experiment: Inhibition of HMG CoA reductase (unknown origin)
T2 sequence (P04035 whole entry): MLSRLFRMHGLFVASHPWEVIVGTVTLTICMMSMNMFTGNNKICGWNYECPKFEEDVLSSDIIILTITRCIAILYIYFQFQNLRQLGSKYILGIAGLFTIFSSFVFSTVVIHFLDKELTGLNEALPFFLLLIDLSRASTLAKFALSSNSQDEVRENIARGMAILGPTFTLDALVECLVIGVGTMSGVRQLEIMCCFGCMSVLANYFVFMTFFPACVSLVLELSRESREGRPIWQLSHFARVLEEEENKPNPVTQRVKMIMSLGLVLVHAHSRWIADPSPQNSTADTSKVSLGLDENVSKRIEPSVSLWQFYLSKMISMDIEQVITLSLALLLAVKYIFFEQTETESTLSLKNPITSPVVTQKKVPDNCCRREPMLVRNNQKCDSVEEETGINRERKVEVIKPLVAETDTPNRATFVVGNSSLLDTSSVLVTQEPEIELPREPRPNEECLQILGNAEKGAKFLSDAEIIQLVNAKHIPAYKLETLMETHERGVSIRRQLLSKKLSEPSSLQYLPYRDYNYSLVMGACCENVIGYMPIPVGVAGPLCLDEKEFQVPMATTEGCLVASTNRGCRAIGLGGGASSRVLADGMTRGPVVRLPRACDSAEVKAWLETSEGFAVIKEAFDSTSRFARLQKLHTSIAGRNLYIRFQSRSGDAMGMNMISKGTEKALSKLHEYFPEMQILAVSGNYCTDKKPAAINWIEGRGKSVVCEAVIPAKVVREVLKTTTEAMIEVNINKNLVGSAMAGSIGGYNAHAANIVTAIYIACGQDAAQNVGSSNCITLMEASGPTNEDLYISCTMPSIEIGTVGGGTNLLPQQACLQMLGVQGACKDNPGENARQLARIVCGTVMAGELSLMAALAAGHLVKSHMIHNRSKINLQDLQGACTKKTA

PCSK9/LDLR [9] = biological target: T3, PCSK9/LDLR (Homo sapiens, UniProt Q8NBP7); experiment: Inhibition of PCSK9-LDLR (unknown origin) protein-protein interaction; type: protein assay
[10] = biological target: T1, Proprotein convertase subtilisin/kexin type 9; experiment: Binding affinity to PCSK9 (unknown origin)
PCSK9/LDLR [11] = biological target: T3, PCSK9/LDLR; experiment: Inhibition of PCSK9-LDLR protein-protein interaction in human HepG2 cells assessed as increase in LDL uptake; type: cell-based
[12] = biological target: Proprotein convertase subtilisin/kexin type 9 (Mus musculus, UniProt Q80W65); experiment: Binding affinity to mouse PCSK9
[13] = biological target: T1, Proprotein convertase subtilisin/kexin type 9; experiment: Inhibition of PCSK9 in human HepG2 cells assessed as restoration of LDLR at 1 uM relative to control; type: cell-based
[14] = biological target: T1, Proprotein convertase subtilisin/kexin type 9; experiment: Inhibition of PCSK9 in human HepG2 cells assessed as increase in LDL uptake at 1 uM relative to control; type: cell-based
Homo sapiens [15] = species: Homo sapiens; experiment: Hypocholesterolemic activity in human assessed as reduction in LDL-C level at 10 to 20 mg; type: functional; set-up: scale not given: the % may be the effect or the level left; settings: dose 10-20 mg
[16] = biological target: T1, Proprotein convertase subtilisin/kexin type 9; experiment: Inhibition of human PCSK9 preincubated for 30 mins followed by ab20 addition and measured after 2 hrs by TR-FRET assay
[17] = biological target: T1, Proprotein convertase subtilisin/kexin type 9; experiment: Inhibition of human PCSK9 preincubated for 30 mins followed by LDLR addition and measured after 2 hrs by TR-FRET assay

T3 sequence (Q8NBP7 31-152 limits assumed): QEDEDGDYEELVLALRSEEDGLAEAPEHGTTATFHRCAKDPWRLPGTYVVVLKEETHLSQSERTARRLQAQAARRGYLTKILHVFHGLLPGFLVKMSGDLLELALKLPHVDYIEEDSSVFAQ
T3 sequence (Q8NBP7 153-692 limits assumed): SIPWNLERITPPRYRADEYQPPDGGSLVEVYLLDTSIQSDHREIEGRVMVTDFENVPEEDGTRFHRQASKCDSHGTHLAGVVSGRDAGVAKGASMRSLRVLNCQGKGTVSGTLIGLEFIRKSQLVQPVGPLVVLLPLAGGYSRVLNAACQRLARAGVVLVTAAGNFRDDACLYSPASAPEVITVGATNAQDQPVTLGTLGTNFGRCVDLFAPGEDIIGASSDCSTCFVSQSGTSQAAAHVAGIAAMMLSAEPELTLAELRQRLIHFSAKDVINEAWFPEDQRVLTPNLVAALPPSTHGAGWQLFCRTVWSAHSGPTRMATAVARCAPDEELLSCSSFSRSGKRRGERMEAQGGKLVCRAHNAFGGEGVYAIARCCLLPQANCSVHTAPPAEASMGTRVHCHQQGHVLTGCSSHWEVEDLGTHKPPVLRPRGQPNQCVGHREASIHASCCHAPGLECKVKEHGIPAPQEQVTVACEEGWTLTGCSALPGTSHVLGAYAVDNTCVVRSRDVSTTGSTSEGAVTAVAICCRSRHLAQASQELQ
T3 sequence (P01130 22-860 partner limits assumed): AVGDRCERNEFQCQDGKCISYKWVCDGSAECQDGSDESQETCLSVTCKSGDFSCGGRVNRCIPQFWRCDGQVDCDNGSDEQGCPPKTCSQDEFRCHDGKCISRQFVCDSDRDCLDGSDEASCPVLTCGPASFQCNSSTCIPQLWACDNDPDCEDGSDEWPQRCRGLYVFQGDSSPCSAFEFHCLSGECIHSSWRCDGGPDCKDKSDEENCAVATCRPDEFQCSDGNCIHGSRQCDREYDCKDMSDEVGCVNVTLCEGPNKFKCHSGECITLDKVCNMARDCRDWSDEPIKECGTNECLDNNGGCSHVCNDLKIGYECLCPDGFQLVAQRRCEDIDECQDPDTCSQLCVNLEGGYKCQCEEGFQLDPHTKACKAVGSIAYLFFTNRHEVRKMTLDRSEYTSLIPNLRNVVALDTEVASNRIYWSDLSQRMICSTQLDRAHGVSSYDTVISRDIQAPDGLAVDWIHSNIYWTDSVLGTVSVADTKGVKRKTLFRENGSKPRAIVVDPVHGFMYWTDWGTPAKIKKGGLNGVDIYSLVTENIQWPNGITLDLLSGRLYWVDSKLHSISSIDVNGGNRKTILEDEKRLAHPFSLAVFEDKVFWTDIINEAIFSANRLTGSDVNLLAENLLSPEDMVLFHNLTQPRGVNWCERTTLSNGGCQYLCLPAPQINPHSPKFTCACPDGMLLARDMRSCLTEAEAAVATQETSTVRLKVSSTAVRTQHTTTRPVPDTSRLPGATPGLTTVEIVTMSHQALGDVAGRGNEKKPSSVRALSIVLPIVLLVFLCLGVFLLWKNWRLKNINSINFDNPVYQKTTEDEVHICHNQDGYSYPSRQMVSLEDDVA
T1 sequence (Q8NBP7 31-152 limits assumed): as the sequence (Q8NBP7 31-152 limits assumed) above
T1 sequence (Q8NBP7 153-692 limits assumed): as the sequence (Q8NBP7 153-692 limits assumed) above
Proprotein convertase subtilisin/kexin type 9 (Mus musculus, UniProt Q80W65), sequence (Q80W65 35-155 limits assumed): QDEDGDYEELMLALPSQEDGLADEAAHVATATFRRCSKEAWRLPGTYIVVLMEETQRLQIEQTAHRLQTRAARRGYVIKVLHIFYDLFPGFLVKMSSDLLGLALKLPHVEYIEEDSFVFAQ
Proprotein convertase subtilisin/kexin type 9 (Mus musculus, UniProt Q80W65), sequence (Q80W65 156-694 limits assumed): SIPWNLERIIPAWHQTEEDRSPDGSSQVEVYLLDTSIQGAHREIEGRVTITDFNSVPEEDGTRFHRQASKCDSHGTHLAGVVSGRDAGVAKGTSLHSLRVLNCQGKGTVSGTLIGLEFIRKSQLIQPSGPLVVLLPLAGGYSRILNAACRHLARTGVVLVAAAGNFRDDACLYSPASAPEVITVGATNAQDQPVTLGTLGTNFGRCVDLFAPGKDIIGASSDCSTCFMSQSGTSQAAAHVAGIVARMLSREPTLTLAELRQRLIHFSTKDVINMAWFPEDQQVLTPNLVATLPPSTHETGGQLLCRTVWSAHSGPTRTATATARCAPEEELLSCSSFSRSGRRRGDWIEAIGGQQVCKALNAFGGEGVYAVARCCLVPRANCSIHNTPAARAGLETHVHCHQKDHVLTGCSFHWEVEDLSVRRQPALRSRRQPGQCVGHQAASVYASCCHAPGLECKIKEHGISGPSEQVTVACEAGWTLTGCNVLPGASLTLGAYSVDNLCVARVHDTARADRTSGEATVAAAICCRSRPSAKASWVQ

SMILES: COc1ccc2c(c1)CCN1Cc3c(ccc(OC)c3OS(=O)(=O)c3cccc(F)c3)C[C@H]21.Cl
Activity (Homo sapiens [1]): 17.4% | Activity (Homo sapiens [2]): 20.1% | Activity (Homo sapiens [3]): 26.3%

SMILES: CC[C@H](C)[C@H](NC(=O)[C@H](CCC(N)=O)NC(=O)[C@H](CC(C)C)NC(=O)[C@H](CC(N)=O)NC(=O)[C@H](Cc1c[nH]c2ccccc12)NC(=O)[C@@H]1CCCN1C(=O)[C@H](CC(C)C)NC(=O)[C@H](CCCNC(=N)N)NC(=O)[C@H](CS)NC(=O)CNC(=O)[C@H](CO)NC(=O)CNC(=O)[C@@H](NC(=O)[C@H](Cc1c[nH]c2ccccc12)NC(=O)[C@H](CC(=O)O)NC(=O)[C@H](CC(C)C)NC(=O)[C@H](Cc1ccc(O)cc1)NC(=O)[C@H](CCC(=O)O)NC(=O)[C@H](CCC(=O)O)NC(=O)[C@H](Cc1c[nH]c2ccccc12)NC(=O)[C@H](CO)NC(=O)[C@@H](NC(=O)[C@H](Cc1ccccc1)NC(=O)[C@@H](NC(=O)[C@@H](N)[C@@H](C)O)C(C)C)[C@@H](C)O)C(C)C)C(=O)NCC(=O)N[C@@H](CC(C)C)C(=O)N1CCC[C@H]1C(=O)N[C@@H](CS)C(=O)O (H-TVFTSWEEYLDWVGSGCRLPWNLQIGLPC-OH)
Kd [4]: 5.5 nM | EC50 [5]: 250 nM | IC50 [6]: 20 nM | IC50 [7]: > 50000 nM

SMILES: CC(C)C[C@H](N)C(=O)N1CCC[C@H]1C(=O)N[C@@H](CCCCN)C(=O)N[C@@H](Cc1c[nH]cn1)C(=O)N[C@@H](CO)C(=O)N[C@@H](C)C(=O)N[C@@H](CC(=O)O)C(=O)O (H-LPKHSAD-OH)
IC50 [8]: 175000 nM | IC50 (PCSK9/LDLR [9]): 1700 nM

SMILES: CC[C@H](C)[C@H](NC(=O)[C@@H](N)CC(C)C)C(=O)N[C@@H](CC(C)C)C(=O)N1CCC[C@H]1C(=O)N[C@@H](CCCCN)C(=O)N[C@@H](Cc1c[nH]cn1)C(=O)N[C@@H](CO)C(=O)N[C@@H](C)C(=O)N[C@@H](CC(=O)O)C(=O)O (H-LILPKHSAD-OH)
IC50 [8]: 147000 nM | IC50 (PCSK9/LDLR [9]): 1600 nM

SMILES: CC(C)[C@@H]1NC(=O)[C@H](Cc2ccccc2)NC(=O)CSC[C@@H](C(=O)NCC(N)=O)NC(=O)[C@@H]2CCCN2C(=O)[C@H](CCCNC(=N)N)NC(=O)[C@H](CC(=O)O)NC(=O)[C@H](C)N(C)C(=O)[C@H](Cc2ccc(-c3ccccc3)cc2)NC(=O)[C@H](C)N(C)C(=O)[C@H](Cc2ccc(-c3ccccc3)cc2)NC(=O)[C@H]([C@@H](C)O)NC(=O)[C@H]([C@@H](C)O)NC(=O)[C@H](CO)NC1=O
Kd [4]: 0.3 nM | EC50 (PCSK9/LDLR [11]): 106 nM | Kd [12]: 1 nM

SMILES: C[C@H]1NC(=O)[C@H](CNC(=O)CCOCCOCC[N+](C)(C)C)NC(=O)CCSCc2cc3cc(c2)-n2cc(nn2)Cn2cc(c4cc(F)ccc42)C[C@@H]2NC(=O)[C@H](Cc4cccc(c4)C/C=C/CCO[C@H]4CCN(C2=O)[C@@H]4C(=O)N[C@@H]([C@@H](C)O)C(=O)N[C@@H](Cc2ccc(O)cc2)C(=O)N2CCC[C@@]2(C)C(=O)NCCSC3)NC1=O
Activity (Homo sapiens [15]): 65%

SMILES: CC[C@H](C)[C@H](NC(=O)[C@H](CCCCNC(=N)N)NC(=O)[C@@H](NC(=O)[C@H](CC(C)C)NC(=O)[C@H](CC(N)=O)NC(=O)[C@H](Cc1c[nH]c2ccccc12)NC(=O)CNC(=O)[C@@H]1CCCN1C(=O)[C@H](Cc1ccccc1)NC(=O)[C@H](CO)NC(=O)[C@H](CCC(=O)O)NC(=O)[C@@H](N)CCSC)C(C)C)C(=O)NCC(=O)N[C@@H](CC(C)C)C(=O)N[C@@H](CC(C)C)C(=O)N[C@@H](CCCNC(=N)N)C(=O)O (H-MESFPGWNLV[hArg]IGLLR-OH)
IC50 [16]: 840 nM | Kd [4]: 700 nM | IC50 [17]: 25000 nM | inhibition [5]: 70%

SMILES: CC[C@H](C)[C@H](NC(=O)[C@H](CCCCNC(=N)N)NC(=O)[C@@H](NC(=O)[C@H](CC(C)C)NC(=O)[C@H](CC(N)=O)NC(=O)[C@H](Cc1c[nH]c2ccccc12)NC(=O)C1(N)CCC(c2ccccc2)CC1)C(C)C)C(=O)NCC(=O)N[C@@H](CC(C)C)C(=O)N[C@@H](CC(C)C)C(=O)N[C@@H](CCCNC(=N)N)C(=O)O (stereo partly specified) (H-[X1]WNLV[hArg]IGLLR-OH)
IC50 [16]: 140 nM | IC50 [6]: 700 nM

SMILES: CC[C@H](C)[C@H](NC(=O)[C@H](CCCCNC(=N)N)NC(=O)[C@H](CCCCN)NC(=O)[C@H](CC(C)C)NC(=O)[C@H](CC(N)=O)NC(=O)[C@H](Cc1c[nH]c2ccccc12)NC(=O)C1(N)CCC(c2ccccc2)CC1)C(=O)NCC(=O)N[C@@H](CC(C)C)C(=O)N[C@@H](CC(C)C)C(=O)N[C@@H](CCCNC(=N)N)C(=O)O (stereo partly specified) (H-[X1]WNLK[hArg]IGLLR-OH)
IC50 [16]: 40 nM | Kd [4]: 390 nM | IC50 [17]: 1830 nM | inhibition [5]: 50% | IC50 [7]: 720 nM

Second part, the molecule after the results:

IC50 [7]: > 50000 nM
SMILES: CC[C@H](C)[C@H](NC(=O)[C@H](CCCCNC(=N)N)NC(=O)[C@@H](NC(=O)[C@H](CC(C)C)NC(=O)[C@H](CC(N)=O)NC(=O)[C@H](Cc1c[nH]c2ccccc12)NC(=O)[C@@H]1CCCN1C(=O)[C@H](CCSC)NC(=O)[C@H](CC(C)C)NC(=O)[C@@H](N)CC(=O)O)C(C)C)C(=O)NCC(=O)N[C@@H](CC(C)C)C(=O)N[C@@H](CC(C)C)C(=O)N[C@@H](CCCNC(=N)N)C(=O)O (H-DLMPWNLV[hArg]IGLLR-OH)

Kd [10]: 24800 nM
SMILES: CC(C)C[C@H](C(=O)N1CCN([C@@H](CC(N)=O)C(=O)N[C@@H](CCCNC(=N)N)C(=O)C[C@H]2CCOC2=O)CC1)N1C(=O)N[C@@H](CC(=O)O)C1=O

inhibition [13]: 75.3% | IC50 (PCSK9/LDLR [9]): 14500 nM | inhibition [14]: 88%
SMILES: CC(=O)N[C@H](C(=O)N[C@H](C(=O)N[C@@H](Cc1ccccc1)C(=O)N[C@@H](CCCNC(=N)N)C(=O)N[C@@H](CO)C(=O)N[C@@H](Cc1c[nH]c2ccccc12)C(=O)N[C@@H](CCC(=O)O)C(=O)N[C@@H](CCC(=O)O)C(=O)N[C@@H](Cc1ccc(O)cc1)C(=O)N[C@@H](CC(C)C)C(=O)N[C@@H](CC(=O)O)C(=O)N[C@@H](Cc1ccc(O)cc1)C(=O)N[C@H](C(N)=O)C(C)C)C(C)C)[C@@H](C)O (Ac-TVFRSWEEYLDYV-NH2)

inhibition [13]: 89.9% | IC50 (PCSK9/LDLR [9]): 27100 nM | inhibition [14]: 99%
SMILES: CC(=O)N[C@H](C(=O)N[C@H](C(=O)N[C@@H](Cc1ccccc1)C(=O)N[C@H](C(=O)N[C@@H](CO)C(=O)N[C@@H](Cc1c[nH]c2ccccc12)C(=O)N[C@@H](CCC(=O)O)C(=O)N[C@@H](CCC(=O)O)C(=O)N[C@@H](C)C(=O)N[C@@H](CC(C)C)C(=O)N[C@@H](CC(=O)O)C(=O)N[C@@H](Cc1c[nH]c2ccccc12)C(=O)N[C@H](C(N)=O)C(C)C)[C@@H](C)O)C(C)C)[C@@H](C)O (Ac-TVFTSWEEALDWV-NH2)

IC50 (PCSK9/LDLR [9]): 700 nM
SMILES: CC(C)C[C@H](NC(=O)[C@H](Cc1ccc(O)cc1)NC(=O)[C@@H](N)CC(C)C)C(=O)N1CCC[C@H]1C(=O)N[C@@H](CCCCN)C(=O)N[C@@H](Cc1c[nH]cn1)C(=O)N[C@@H](CO)C(=O)N[C@@H](CC(=O)O)C(=O)N[C@@H](CCCNC(=N)N)C(=O)N[C@@H](CC(=O)O)C(=O)O (H-LYLPKHSDRD-OH)

IC50 [7]: > 50000 nM
SMILES: CC[C@H](C)[C@H](NC(=O)[C@H](CCCCNC(=N)N)NC(=O)[C@@H](NC(=O)[C@H](CC(C)C)NC(=O)[C@H](CC(N)=O)NC(=O)[C@@H](N)Cc1c[nH]c2ccccc12)C(C)C)C(=O)NCC(=O)N[C@@H](CC(C)C)C(=O)N[C@@H](CC(C)C)C(=O)N[C@@H](CCCNC(=N)N)C(=O)O (H-WNLV[hArg]IGLLR-OH)
